Like-named read-outs stand apart in the source and are kept apart here.
Legend:
[1] = molecular target: Recombinant full-length human IDO1 (Homo sapiens (Human), UniProt P14902); assay: IDO1 enzymatic assay (IDO inhibitory activity); format: biochemical; settings: 2 nM enzyme, 5 μM L-tryptophan, pH6.5, 30 min pre-incubation, NFK quantified by LCMS; mean values if measured multiple times; read-out: hIDO activity (IC50 in nM)
Outline: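 N-His-tagged enzyme from E. coli at 2 nM in 37.5 mM phosphate pH6.5 with ascorbate, methylene blue, catalase; compounds 10 μM–0.5 nM, 0.6% DMSO, pre-incubated 30 min RT, then 5 μM L-tryptophan for 30 min RT. NFK quantified by LCMS against d5-tryptophan; IC50 from duplicate four-parameter fit, means where repeated.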

[2] = molecular target: Recombinant human TDO comprising amino acids 19-407 (Homo sapiens (Human), UniProt P48775); assay: TDO2 enzymatic assay (TDO inhibitory activity); format: biochemical; settings: 15 nM enzyme, 200 μM L-tryptophan, pH7, 30 min pre-incubation, NFK quantified by LCMS, mean values if measured multiple times
Chain of Recombinant human TDO comprising amino acids 19-407 (P48775 19-406 limits assumed): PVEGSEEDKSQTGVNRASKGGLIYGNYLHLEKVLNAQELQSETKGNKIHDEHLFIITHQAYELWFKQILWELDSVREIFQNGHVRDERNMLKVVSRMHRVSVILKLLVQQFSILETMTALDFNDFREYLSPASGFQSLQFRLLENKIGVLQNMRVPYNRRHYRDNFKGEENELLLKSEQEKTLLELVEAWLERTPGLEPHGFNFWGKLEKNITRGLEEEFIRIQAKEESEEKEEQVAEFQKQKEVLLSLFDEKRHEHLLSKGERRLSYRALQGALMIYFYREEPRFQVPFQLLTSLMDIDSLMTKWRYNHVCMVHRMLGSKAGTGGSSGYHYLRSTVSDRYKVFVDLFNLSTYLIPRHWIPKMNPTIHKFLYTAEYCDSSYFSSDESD
Outline: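 His-tagged enzyme (15 nM, E. coli-expressed) in pH 7 phosphate buffer with ascorbate, catalase, BSA, Tween 20, 0.6% DMSO; 30 min RT pre-incubation with compound (10 μM–0.5 nM), then 200 μM L-tryptophan for 30 min RT. N′-formylkynurenine quantified by LCMS against deuterated tryptophan; IC50 by four-parameter fit, duplicates.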

[3] = read-out: hTDO activity (IC50 in nM)

Chain of Recombinant full-length human IDO1 (P14902 whole entry): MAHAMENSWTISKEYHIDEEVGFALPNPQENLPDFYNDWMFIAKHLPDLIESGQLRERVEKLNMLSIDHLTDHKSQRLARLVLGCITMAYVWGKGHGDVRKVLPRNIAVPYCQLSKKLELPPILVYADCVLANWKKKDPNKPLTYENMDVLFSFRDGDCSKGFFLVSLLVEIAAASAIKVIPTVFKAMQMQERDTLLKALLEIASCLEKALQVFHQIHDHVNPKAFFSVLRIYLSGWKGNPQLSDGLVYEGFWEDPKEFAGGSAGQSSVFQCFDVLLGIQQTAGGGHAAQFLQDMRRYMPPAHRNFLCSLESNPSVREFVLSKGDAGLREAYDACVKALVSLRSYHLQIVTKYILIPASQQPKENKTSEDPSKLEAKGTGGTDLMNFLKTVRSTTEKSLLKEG

| Structure (SMILES) | IC50 [1] [nM] | IC50 [2, 3] [nM] | IC50 ([2]; hTDO activity (IC50 in nM)) [nM] |
| --- | --- | --- | --- |
| CC1CCCC1C(O)c1c(C2CC2)sc2cncn12 (centres unmarked) [Example 48, (2-Cyclopropyl-imidazo[5,1-b]thiazol-3-yl)-(2-methyl-cyclopentyl)-methanol] | 8.4 | 70.6 | – |
| O[C@H](c1c(C(F)(F)F)sc2cncn12)C1CCCCC1 [Example 63a, (S)-Cyclohexyl-(2-trifluoromethyl-imidazo[5,1-b]thiazol-3-yl)-methanol] | 20.9 | 341 | – |
| CC1CCCC1C(O)c1c(C(F)(F)F)sc2cncn12 (centres unmarked) [Example 119, (2-Methyl-cyclopentyl)-(2-trifluoromethyl-imidazo[5,1-b]thiazol-3-yl)-methanol] | 191 | 187 | – |
| OC(c1c(-c2ccsc2)sc2cncn12)C1CCCCC1 (racemic) [Example 94, rac-Cyclohexyl-(2-thiophen-3-yl-imidazo[5,1-b]thiazol-3-yl)-methanol] | 144 | 181 | – |
| OC(c1c(-c2cccc(F)c2)sc2cncn12)C1CCCCC1 (racemic) [Example 181, rac-Cyclohexyl-[2-(3-fluoro-phenyl)-imidazo[5,1-b]thiazol-3-yl]-methanol] | 965 | 885 | – |
| CC1(C)CCCC(C(O)c2c(C3CC3)sc3cncn23)C1 (centres unmarked) [Example 69, (2-Cyclopropyl-imidazo[5,1-b]thiazol-3-yl)-(3,3-dimethyl-cyclohexyl)-methanol] | 40 | 255 | – |
| CCc1sc2cncn2c1[C@@H](O)CC1CCCCC1 [Example 100a, (S)-2-Cyclohexyl-1-(2-ethyl-imidazo[5,1-b]thiazol-3-yl)-ethanol] | 7.82 | 202 | – |
| CCC(C1CCCCC1)C(O)c1c(C2CC2)sc2cncn12 (centres unmarked) [Example 66, 2-Cyclohexyl-1-(2-cyclopropyl-imidazo[5,1-b]thiazol-3-yl)-butan-1-ol] | 1570 | > 10200 | – |
| Cc1sc2cncn2c1C(O)CC1CCCC1 (racemic) [Example 183, rac-2-Cyclopentyl-1-(2-methyl-imidazo[5,1-b]thiazol-3-yl)-ethanol] | 190 | 573 | – |
| OC(CC1CCC(c2ccccc2)C1)c1c(C(F)(F)F)sc2cncn12 (centres unmarked) [Example 112, 2-(3-Phenyl-cyclopentyl)-1-(2-trifluoromethyl-imidazo[5,1-b]thiazol-3-yl)-ethanol] | 666 | > 10200 | – |
| O[C@@H](CC1CCCCC1)c1c(C2CCCC2)sc2cncn12 [Example 10a, (S)-2-Cyclohexyl-1-(2-cyclopentylimidazo[5,1-b]thiazol-3-yl)ethan-1-ol] | 190 | 164 | – |
| Cc1sc2cncn2c1C(O)[C@H]1C[C@@H]1c1ccccc1 (single isomer, unassigned) [Example 167, rac-(S*)-(2-Methyl-imidazo[5,1-b]thiazol-3-yl)-((1S*,2S*)-2-phenyl-cyclopropyl)-methanol] | 338 | > 10200 | – |
| OC(c1c(C2CC2)sc2cncn12)[C@H]1C[C@@H]2CC[C@H]1C2 (relative stereo) [Example 20, rac-(1R*,2R*,4S*)-Bicyclo[2.2.1]hept-2-yl-(2-cyclopropyl-imidazo[5,1-b]thiazol-3-yl)-methanol] | 16.1 | – | 190 |
| OC(CC1CCC(C2CCCC2)CC1)c1c(C2CC2)sc2cncn12 (racemic) [Example 134, rac-2-(4-Cyclopentyl-cyclohexyl)-1-(2-cyclopropyl-imidazo[5,1-b]thiazol-3-yl)-ethanol] | 757 | 2800 | – |
| Cc1cccc(C(O)c2c(C3CC3)sc3cncn23)c1 (racemic) [Example 52, rac-(2-Cyclopropyl-imidazo[5,1-b]thiazol-3-yl)-m-tolyl-methanol] | 64.8 | 22.3 | – |
| CC1(C)CCCC(CC(O)c2c(C3CC3)sc3cncn23)C1 (centres unmarked) [Example 106, 1-(2-Cyclopropyl-imidazo[5,1-b]thiazol-3-yl)-2-(3,3-dimethyl-cyclohexyl)-ethanol] | 85.1 | 546 | – |
| CC1(C)CCC(C)(C(O)c2c(C3CC3)sc3cncn23)C1 (centres unmarked) [Example 139, (2-Cyclopropyl-imidazo[5,1-b]thiazol-3-yl)-(1,3,3-trimethyl-cyclopentyl)-methanol] | 18.7 | 151 | – |
| OC(CC1CCC(C2CCC2)CC1)c1c(C2CC2)sc2cncn12 (racemic) [Example 87, rac-2-(4-Cyclobutyl-cyclohexyl)-1-(2-cyclopropyl-imidazo[5,1-b]thiazol-3-yl)-ethanol] | 820 | 3100 | – |
| CC(C)C1CCC(CC(O)c2c(C3CC3)sc3cncn23)CC1 (racemic) [Example 85, rac-1-(2-Cyclopropyl-imidazo[5,1-b]thiazol-3-yl)-2-(4-isopropyl-cyclohexyl)-ethanol] | 511 | 2830 | – |

| Structure (SMILES) | IC50 [1] [nM] | IC50 [2, 3] [nM] | IC50 ([2]; hTDO activity (IC50 in nM)) [nM] |
| --- | --- | --- | --- |
| CCC1CCCC1C(O)c1c(C2CC2)sc2cncn12 (centres unmarked) [Example 123, (2-Cyclopropyl-imidazo[5,1-b]thiazol-3-yl)-(2-ethyl-cyclopentyl)-methanol] | 29.4 | 228 | – |
| OC(Cc1ccccc1)c1c(C2CC2)sc2cncn12 (racemic) [Example 59, rac-1-(2-Cyclopropyl-imidazo[5,1-b]thiazol-3-yl)-2-phenyl-ethanol] | 249 | 881 | – |
| OC(c1c(C2CC2)sc2cncn12)C1CC2CCCC2C1 (centres unmarked) [Example 133, (2-Cyclopropyl-imidazo[5,1-b]thiazol-3-yl)-(octahydro-pentalen-2-yl)-methanol] | 7.07 | 259 | – |
| OC(c1c(C2CCC2)sc2cncn12)C1CCCCC1 (racemic) [Example 7, rac-(2-Cyclobutylimidazo[5,1-b]thiazol-3-yl)(cyclohexyl)methanol] | 94.2 | 324 | – |
| OC(c1cn(C2CCCC2)nn1)c1c(C2CC2)sc2cncn12 (racemic) [Example 195, rac-(1-Cyclopentyl-1H-[1,2,3]triazol-4-yl)-(2-cyclopropyl-imidazo[5,1-b]thiazol-3-yl)-methanol] | 96.1 | > 10200 | – |
| Cc1sc2cncn2c1C(O)C1CC(C)(C)C1 (racemic) [Example 109, rac-(3,3-Dimethyl-cyclobutyl)-(2-methyl-imidazo[5,1-b]thiazol-3-yl)-methanol] | 13.6 | 190 | – |
| CC(CC(O)c1c(C2CC2)sc2cncn12)C1CCCCC1 (centres unmarked) [Example 65, 3-Cyclohexyl-1-(2-cyclopropyl-imidazo[5,1-b]thiazol-3-yl)-butan-1-ol] | 124 | 931 | – |
| CCc1sc2cncn2c1C(O)c1ccccc1 (racemic) [Example 176, rac-(2-Ethyl-imidazo[5,1-b]thiazol-3-yl)-phenyl-methanol] | 59.3 | 195 | – |
| OC(c1c(C2CC2)sc2cncn12)C1CCC(C2CCC2)CC1 (racemic) [Example 103, rac-(4-Cyclobutyl-cyclohexyl)-(2-cyclopropyl-imidazo[5,1-b]thiazol-3-yl)-methanol] | 70.1 | 1780 | – |
| OC(c1c(-c2ccccc2F)sc2cncn12)C1CCCCC1 (racemic) [Example 182, rac-Cyclohexyl-[2-(2-fluoro-phenyl)-imidazo[5,1-b]thiazol-3-yl]-methanol] | 441 | 239 | – |
| OC(CC1CCC(c2ccccc2)C1)c1c(C2CC2)sc2cncn12 (centres unmarked) [Example 35, 1-(2-Cyclopropyl-imidazo[5,1-b]thiazol-3-yl)-2-(3-phenyl-cyclopentyl)-ethanol] | 114 | 1570 | – |
| CC1(C)CC(C(O)c2c(C3CC3)sc3cncn23)C1 (racemic) [Example 36, rac-(2-Cyclopropyl-imidazo[5,1-b]thiazol-3-yl)-(3,3-dimethyl-cyclobutyl)-methanol] | 5.38 | 269 | – |
| CC1(C)CCC(C(O)c2c(C3CC3)sc3cncn23)CC1 (racemic) [Example 26, rac-(2-Cyclopropyl-imidazo[5,1-b]thiazol-3-yl)-(4,4-dimethyl-cyclohexyl)-methanol] | 25.2 | 387 | – |
| OC(c1c([C@@H]2C[C@@H]2F)sc2cncn12)C1CCCCC1 (relative stereo) [Example 186, Cyclohexyl-[2-(cis-2-fluoro-cyclopropyl)-imidazo[5,1-b]thiazol-3-yl]-methanol] | 21.8 | 491 | – |
| CC[C@H](C)c1sc2cncn2c1C(O)C1CCCCC1 (stereo partly drawn) [Example 185, [2-((S)-sec-Butyl)-imidazo[5,1-b]thiazol-3-yl]-cyclohexyl-methanol] | 172 | 962 | – |
| O[C@@H](CC1CCCCC1)c1c(C2CCC2)sc2cncn12 [Example 8a, (S)-1-(2-Cyclobutylimidazo[5,1-b]thiazol-3-yl)-2-cyclohexylethan-1-ol] | 72.3 | 129 | – |
| CC(C)c1sc2cncn2c1[C@@H](O)C1CCCCC1 [Example 3a, (S)-Cyclohexyl-(2-isopropyl-imidazo[5,1-b]thiazol-3-yl)-methanol] | 11.7 | 603 | – |
| CC1(C)CC[C@H]([C@H](O)c2c(C3CC3)sc3cncn23)C1 [Example 47b, (S)-(2-Cyclopropyl-imidazo[5,1-b]thiazol-3-yl)-((S)-3,3-dimethyl-cyclopentyl)-methanol] | 5.99 | 190 | – |
